Test results taken from patent US20120316199A1, “COMPOSITIONS AND METHODS FOR TREATING, CONTROLLING, REDUCING, OR AMELIORATING INFLAMMATORY PAIN” (priority 2011, published 2012).
Where “and” joins values, the source holds several entries; their conditions need not be identical. Equal values may be shown once. Entries after “also recorded” stand apart in the source; their conditions may differ.

Tests used:
pupillary diameter = experiment: Pupillary diameter measurement, rabbit paracentesis model; type: in vivo, Rabbit (New Zealand); details: for Pupillary diameter T2: −5 min: 5 min before the first paracentesis; for Pupillary diameter T2: −5 min / Pupillary diameter T3: +115 min / Pupillary diameter T1: −180 min: raw data per eye; for Pupillary diameter T3: +115 min: 5 min before the second paracentesis; for Pupillary diameter T1: −180 min: basal; for Mean (mm) Δ(T3 − T1) of pupillary diameter: group mean, n=8 eyes
[1] = test system: iris and conjunctival vessels, anterior chamber; experiment: Clinical evaluation by slit lamp (clinical score), rabbit paracentesis model; type: in vivo, Rabbit (New Zealand); set-up: key to Clinical Score −180 min / Clinical Score −5 min / Clinical Score +115 min: 0=normal; 1=discrete dilatation of iris and conjunctival vessels; 2=moderate dilatation of iris and conjunctival vessels; 3=intense iridal hyperemia with flare in the anterior chamber; 4=intense iridal hyperemia with flare in the anterior chamber and presence of fibrinous exudates; details: for Clinical Score −5 min: 5 min before the first paracentesis; for Clinical Score −5 min / Clinical Score +115 min / Clinical Score −180 min: raw data per eye; for Clinical Score +115 min: 5 min before the second paracentesis; for Clinical Score −180 min: basal
[2] = test system: PGE2 in the aqueous humor; experiment: Prostaglandin E2 (PGE2) measurement in aqueous humor, rabbit paracentesis model; type: in vivo, Rabbit (New Zealand); details: for PGE2 level in aqueous humor, Mean: second paracentesis, group mean
Procedure: (§1) Each rabbit was placed in a restraint device and tagged with the alphanumeric code. The formulations were instilled (50 μl) into the conjunctival sac of both eyes 180, 120, 90 and 30 min before the first paracentesis; then 15, 30, 90 min after the first paracentesis. To perform the first paracentesis the animals were anaesthetized by intravenous injection of 5 mg/kg Zoletil® (Virbac; 2.5 mg/kg tiletamine HCl and 2.5 mg/kg zolazepam HCl) and one drop of local anesthetic (Novesina®, Novartis) was administered to the eye. Anterior chamber paracentesis was performed with a 26 G needle attached to a tuberculin syringe; the needle was introduced into the anterior chamber through the cornea, taking care not to damage the tissues. Two hours after the first paracentesis, the animals were sacrificed with 0.4 ml Tanax® (Intervet International B.V.) and the second paracentesis was performed. About 100 μl of aqueous humor were removed at the second paracentesis. Aqueous humor was immediately split in four aliquots and stored at −80° C. until analysis. Then both eyes were enucleated and the iris-ciliary body was carefully excised, placed in polypropylene tubes, and stored at −80° C. until analysis.
For the quantitative determination of PGE2 in the aqueous humor we used the PGE2 Immunoassay kit (R&D Systems; Cat. No. KGE004; Lot. No. 240010). Eleven microliters or 16 μl of aqueous humor were diluted to 110 μl or 160 μl with the calibrator diluent solution provided with the kit. One hundred microliters of samples and of standards were load into a 96-well plate and recorded in a plate layout. Samples were treated following the assay procedure described in the kit. A microplate reader (GDV, Italy; model DV 990 B/V6) set at 450 nm (wavelength correction at 540 nm) was used for making the calibration and analyzing the samples.
(§2) Pupillary diameter, PGE2, protein, PMN, and MPO were expressed as mean±SEM. Statistical analysis was performed using one way ANOVA followed by a Newman-Keuls post hoc test. Clinical score was expressed as % of eyes and the statistical analysis was performed using Kruskal-Wallis followed by a Dunn post hoc test. P<0.05 was considered statistically significant in both cases. Prism 4 software (GraphPad Software, Inc.) was used for the analysis and graphs.

[3] = test system: protein concentration in the aqueous humor; experiment: Protein measurement in aqueous humor, rabbit paracentesis model; type: in vivo, Rabbit (New Zealand); details: for Protein level in aqueous humor, Mean / Protein level in aqueous humor, raw data: second paracentesis; for Protein level in aqueous humor, Mean: group mean; for Protein level in aqueous humor, raw data: per eye
Procedure: as §1
For protein concentration determination in the aqueous humor we used the Protein Quantification Kit (Fluka; Cat. No. 77371; Lot. No. 1303129). Five microliters of aqueous humor were diluted to 100 μl with water. Twenty microliters of samples and of standards were load into a 96-well plate and recorded in a plate layout. Samples were treated following the assay procedure described in the kit. A microplate reader (GDV, Italy; model DV 990 B/V6) set at 670 nm was used for making the calibration and analyzing the samples.
as §2

[4] = test system: MPO activity in iris-ciliary body; experiment: Myeloperoxidase (MPO) activity in iris-ciliary body, rabbit paracentesis model; type: in vivo, Rabbit (New Zealand); details: for MPO activity in iris-ciliary body: individual samples collected after the second paracentesis; for MPO activity in iris-ciliary body, Mean: after the second paracentesis, group mean
Procedure: as §1
The activity of MPO was measured as previously described by Williams et al.[5] The iris-ciliary bodies were carefully dried, weighed and immersed in 1 ml of hexa-decyl-trimethyl-ammonium bromide solution. Then, the samples were sonicated for 10 sec on ice by a ultrasound homogenizer (HD 2070, Bandelin electronic), freeze-thawed three times, sonicated for 10 sec and centrifuged at 14,000 g for 10 min to remove cellular debris. An aliquot of the supernatant (40-200 μl) was diluted to 3 ml with the o-dianisidine 2HCl/H2O2 solution. The change in absorbance at 460 nm was continuously monitored for 5 min by a spectrophotometer (UV/Vis Spectrometer Lambda EZ 201; Perkin Elmer). The slope of the line (Δ/min) was determined for each sample and used to calculate the number of units of MPO in the tissue as follows:
Values were expressed as units of MPO/g of tissue.
as §2

[5] = test system: intraocular pressure (IOP); experiment: Intraocular pressure in New Zealand White rabbits, topical dosing four times daily; type: in vivo
Procedure: (§3) On Days 1-31, animals received daily topical doses of the appropriate test article into the right eye. Animals were dosed four times per day, with doses administered 2 hours apart. Doses were administered using a calibrated 50-μL pipette. The eyelids were held close for 10 seconds immediately following dosing. The time of each dose administration was recorded.
Intraocular pressure (“IOP”) was determined for both eyes of each animal on Days 3, 5, 10, 12, 16, 18, 22, 24, 26, 30, and 32. IOP was evaluated with a Medtronic Solan, Model 30 classic pneumatonometer. Proparacaine hydrochloride 0.5% (1 drop) was delivered to each eye prior to IOP measurement. IOP was measured on Monday. Wednesday, and Friday of each week. A two-point diurnal curve was established: IOP was recorded at 8 a.m. and 12 p.m. on Day 3, and at 8 a.m. and 2 p.m. on later days, with a ±1 hour range for each of these times. The time of the measurements was recorded.
Descriptive statistics were prepared for IOP data of each treatment group (left and right eyes separately) at each measurement interval. The statistics included the number of observations (“N”) mean, standard deviation (“STD”), and standard error (“SEM”). Statistical analyses were conducted on IOP results using Statistical Analysis Systems (SAS Institute. Inc., Cary, N.C. V8.0). Parameters were evaluated using analysis of variance/GLM Procedure followed by Tukey's Standardized Range Test (Tukey, 1985) for post hoc comparisons of group means. The level of significance was set at a probability of p<0.05 for all statistical procedures. Group IOP means were compared at each interval, with left and right eyes compared separately.

[6] = test system: New Zealand White rabbits; experiment: Mortality/morbidity in New Zealand White rabbits, topical dosing four times daily; type: in vivo
Procedure: as §3
Animals determined to be moribund were euthanized with an intravenous injection of commercial euthanasia solution.

rabbit eyes = experiment: Ophthalmic observations (slit lamp, McDonald Shadduck scores) in New Zealand White rabbits; type: in vivo; set-up: key to Ophthalmic Observation (Slit-Lamp): AN = Appeared normal
Procedure: Prior to placement on study, each animal underwent a pre-treatment ophthalmic examination (slit lamp and indirect ophthalmoscopy). Observations were scored according to the McDonald Shadduck system and recorded using a standardized data collection sheet.
as §3
Ophthalmic examinations (slit lamp) were performed prior to the first dosing on Days 5, 12, 22, 26, and 33. Ocular findings were scored according to the McDonald Shadduck system and recorded using a standardized data collection sheet.

[7] = 0.1% formulation, +115 min, N=8 eyes
[8] = 0.1% formulation, −5 min, N=8 eyes
[9] = Group A, 0.1% (0.05 mg/dose) 4 x daily, individual rabbits
[10] = Group A, 0.1%, treated right eye, individual animals

CC(C(=O)O)c1ccc(-c2ccccc2)c(F)c1 (stereo not shown) [F, flurbiprofen]
Pupillary diameter T2: −5 min (pupillary diameter; 0.03% formulation): 6.0 mm and 6.5 mm and 7.0 mm and 5.5 mm | Pupillary diameter T3: +115 min (pupillary diameter; 0.03% formulation): 4.0 mm and 3.5 mm and 5.5 mm and 5.0 mm and 4.5 mm and 6.0 mm | Pupillary diameter T1: −180 min (pupillary diameter; 0.03% formulation): 5.0 mm and 7.0 mm and 6.0 mm and 5.5 mm | Mean (mm) Δ(T3 − T1) of pupillary diameter (pupillary diameter; 0.03% formulation): −0.9 mm | Clinical Score −5 min ([1]; 0.03% formulation): 0 | Clinical Score +115 min ([1]; 0.03% formulation): 2 | Percentage of eyes with clinical score 2 ([1]; 0.03% formulation, +115 min, N=8 eyes): 100% | Clinical Score −180 min ([1]; 0.03% formulation): 0 | Percentage of eyes with clinical score 0 ([1]; 0.03% formulation, −5 min, N=8 eyes): 100% | Percentage of eyes with clinical score 0 ([1]; 0.03% formulation, −180 min (basal), N=8 eyes): 100% | PGE2 in aqueous humor, statistical significance versus CTR ([2]; 0.03% formulation, p<0.05): statistically significant versus CTR | PGE2 level in aqueous humor, Mean ([2]; 0.03% formulation): 1.189 ng/mL | Protein in aqueous humor, statistical significance vs CTR ([3]; 0.03% formulation, p<0.001): statistical significance | Protein level in aqueous humor, Mean ([3]; 0.03% formulation): 20.910 mg/mL | Protein level in aqueous humor, raw data ([3]; 0.03% formulation): 20.78 mg/mL and 28.80 mg/mL and 23.41 mg/mL and 20.21 mg/mL and 17.53 mg/mL and 15.12 mg/mL and 20.52 mg/mL | MPO activity in iris-ciliary body ([4]; 0.03% F): 1.27 Unit/g | MPO activity in iris-ciliary body, Mean ([4]; 0.03% formulation): 0.906 MPO Unit/g

C[C@@H]1C[C@H]2[C@@H]3CCC4=CC(=O)C=C[C@]4(C)[C@@]3(F)[C@@H](O)C[C@]2(C)[C@@]1(O)C(=O)CO [Dex, dexamethasone, reference compound]
Pupillary diameter T2: −5 min (pupillary diameter; 0.1% formulation): 5.5 mm and 6.5 mm and 6.0 mm and 7.0 mm and 7.5 mm | Pupillary diameter T3: +115 min (pupillary diameter; 0.1% formulation): 5.5 mm and 6.0 mm and 4.5 mm and 5.0 mm and 6.5 mm | Pupillary diameter T1: −180 min (pupillary diameter; 0.1% formulation): 6.0 mm and 7.0 mm and 5.5 mm and 6.5 mm | Mean (mm) Δ(T3 − T1) of pupillary diameter (pupillary diameter; 0.1% formulation): −0.8 mm | Clinical Score −5 min ([1]; 0.1% formulation): 0 and 1 | Clinical Score +115 min ([1]; 0.1% formulation): 1 and 3 | Percentage of eyes with clinical score 1 [1, 7]: 75% | Percentage of eyes with clinical score 3 [1, 7]: 25% | Clinical Score −180 min ([1]; 0.1% formulation): 0 | Percentage of eyes with clinical score 0 [1, 8]: 75% | Percentage of eyes with clinical score 1 [1, 8]: 25% | Percentage of eyes with clinical score 0 ([1]; 0.1% formulation, −180 min (basal), N=8 eyes): 100% | PGE2 level in aqueous humor, Mean ([2]; 0.1% formulation): 2.263 ng/mL | Protein level in aqueous humor, Mean ([3]; 0.1% formulation): 33.457 mg/mL | Protein level in aqueous humor, raw data ([3]; 0.1% formulation): 31.31 mg/mL and 31.81 mg/mL and 35.95 mg/mL and 37.15 mg/mL and 32.12 mg/mL and 32.40 mg/mL | MPO activity in iris-ciliary body ([4]; 0.1% Dex): 1.32 Unit/g | MPO activity in iris-ciliary body, Mean ([4]; 0.1% formulation): 0.618 MPO Unit/g | Mean IOP of the group compared with corresponding eyes of other groups ([5]; 0.1% dexamethasone (Group A), on several days, one or both eyes, p<0.05): significantly higher | Course of mean IOP after treatment began ([5]; left and right eyes, dexamethasone 0.1% (Group A), BOL-303242-X 10, 5, 1 mg/g (Groups B-D), four times daily): increased sharply | Mortality (rabbits that died or were euthanized between Days 11 and 33) ([6]; 0.05 mg/dose (0.1% dexamethasone suspension or 1 mg/g BOL-303242-X), right eye four times daily, Days 1-31): Six of ten | Day of Death (day euthanized or found dead) [6, 9]: 25 (2×) and 27 (2×) and 23 and 13 | Recorded Notes on death [6, 9]: Euthanized. Very sick/poor health; left (untreated) eye; also recorded: Euthanized due to severe profuse hemorrhagic diarrhea; also recorded: Found dead. No rigor mortis present | Mortality rate ([6]; dexamethasone suspension 0.05 mg/dose four times daily up to 31 days): 6 deaths per 10 rabbits | Conjunctival congestion Score (rabbit eyes; [10]): 1 | Ophthalmic Observation (Slit-Lamp) (rabbit eyes; [10]): AN | Ophthalmic observation associated with unilateral topical instillation (rabbit eyes; four times daily up to 31 days, BOL-303242-X 0.05, 0.25, or 0.5 mg/dose, dexamethasone 0.05 mg/dose): sporadic mild conjunctival congestion
